# pIC50: −log10 of the molar value. Like-named read-outs stand apart in the source and are kept apart here.
# How the values were obtained:
# [1] = system: MDA-MB-436 breast cancer subcutaneous xenograft tumor model; assay: In vivo pharmacodynamic study of compound 53 in MDA-MB-436 subcutaneous xenograft tumor model; set-up: species or system NOD/SCID mice; conditions: oral once daily, 30 days; for inhibitory effects on tumor growth (in words): compared to blank control
# [2] = target: T1, PARP1 (Homo sapiens, UniProt P09874); assay: PARP1 enzyme assay (histone-coated plate, chemiluminescence); format: biochemical; conditions: PARP1 0.02 nM, DNA 0.8 nM, NAD+ 3.5 µM; read-out: PARP-1 IC50
# T1 construct: purchased BPS 80501
# [3] = Cerebrospinal fluid and plasma distribution in vivo; conditions: rat, male rats, intravenous 5 mg/kg, n = 1
# Experimental: Experimental procedures: The compound was weighed out, a small amount of DMSO was added, and then a sodium chloride solution for injection was added to prepare a 5 mg·mL^-1 compound solution for later administration. […] 10 µL of the plasma and 10 µL of the cerebrospinal fluid were each added to a centrifuge tube, and 40 µL of acetonitrile containing 20 ng·mL^-1 internal standard SAHA was added for precipitation. […] The supernatant was collected and transferred to a sample vial for later analysis. Range of standard curve: 1-1000 ng·mL^-1.
# [4] = target: T2, PARP6 (Homo sapiens, UniProt Q2NL67); assay: Assay for selectivity for PARP6 (ELISA, chemiluminescence); format: biochemical
# T2 construct: purchased BPS 80556
# Experimental: Main instruments and reagents for PARP6 assay
# Experimental procedures: The enzymatic activity of PARP6 was assayed by the ELISA method. […] The IC50 values of the compounds were calculated using the nonlinear fitting formula in GraphPad software.
# [5] = system: BRCA-mutated MDA-MB-436 cells; assay: Anti-proliferative activity against cells (CCK8): MDA-MB-436; format: cell-based; conditions: Homo sapiens, 72 h + 96 h culture
# [6] = system: BRCA wild-type DLD-1 cells; assay: Anti-proliferative activity against cells (CCK8): DLD-1; format: cell-based; conditions: Homo sapiens, 72 h + 96 h culture
# Outline: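 DLD-1 cells (1000/well) in RPMI-1640 with 10% FBS, treated 24 h after plating with PARPi at 0, 1 or 10 µM final. Cultured 72 h, medium exchanged with re-added PARPi, then a further 96 h; read-out by CCK8.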
# [7] = Pharmacokinetic evaluation in Balb/c mice; format: in vivo; conditions: 1mg/kg, PO
# Experimental: Experimental objective: To understand the pharmacokinetic profiles of the compounds. Experimental basis: Technical guidelines for non-clinical pharmacokinetic studies of chemical drugs, 2014.
# Experimental scheme: The pharmacokinetic profiles of the compounds were investigated by intravenous administration (1 mg·kg^-1) and intragastric administration (1 mg·kg^-1) in Balb/c mice.
# Sample preparation: About 0.2 mg of the compound was weighed out and dissolved in 10 µL of DMSO, and then a sodium chloride solution for injection was added to prepare a 0.1 mg·mL^-1 compound solution for later administration.
# Three of the mice were subjected to intravenous administration (IV) at 1 mg·kg^-1, while the other three were subjected to intragastric administration (PO) at 1 mg·kg^-1. About 0.05 mL of blood was collected at 5 min, 15 min, 30 min, 1 h, 2 h, 4 h, 6 h, 8 h, 10 h, 24 h, and 48 h after administration. The collected blood was centrifuged at 3500 rpm for 15 min. The supernatant plasma was then collected and cryopreserved at -40 °C for later analysis. The plasma concentration was quantitatively analyzed using the LC-MS/MS method, and pharmacokinetic parameters such as […] (Cmax), area under plasma concentration-time curve (AUC(0-t)), half-life (T1/2), clearance rate (CL), tissue distribution (Vdss), and bioavailability (F) were calculated. Table 18. Results of pharmacokinetic test of compounds in Balb/c mice
# [8] = cerebrospinal fluid, read-out: Cerebrospinal fluid
# T2 sequence (Q2NL67 whole entry): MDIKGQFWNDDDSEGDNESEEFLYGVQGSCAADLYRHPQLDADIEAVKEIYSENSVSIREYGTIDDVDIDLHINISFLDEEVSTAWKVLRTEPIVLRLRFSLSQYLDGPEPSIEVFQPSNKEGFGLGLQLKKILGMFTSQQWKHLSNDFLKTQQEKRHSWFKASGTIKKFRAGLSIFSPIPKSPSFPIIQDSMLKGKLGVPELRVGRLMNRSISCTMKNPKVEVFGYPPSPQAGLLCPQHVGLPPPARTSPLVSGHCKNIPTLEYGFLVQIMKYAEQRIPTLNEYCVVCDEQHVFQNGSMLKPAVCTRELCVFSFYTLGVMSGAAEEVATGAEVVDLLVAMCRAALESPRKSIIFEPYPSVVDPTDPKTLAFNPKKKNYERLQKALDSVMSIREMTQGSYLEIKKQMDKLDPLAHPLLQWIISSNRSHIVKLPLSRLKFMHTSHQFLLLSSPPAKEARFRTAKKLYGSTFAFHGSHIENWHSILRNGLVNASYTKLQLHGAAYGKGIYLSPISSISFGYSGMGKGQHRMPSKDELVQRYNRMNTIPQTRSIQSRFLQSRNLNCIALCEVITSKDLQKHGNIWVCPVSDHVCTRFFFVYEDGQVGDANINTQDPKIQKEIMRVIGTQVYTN
# T1 sequence (P09874 whole entry): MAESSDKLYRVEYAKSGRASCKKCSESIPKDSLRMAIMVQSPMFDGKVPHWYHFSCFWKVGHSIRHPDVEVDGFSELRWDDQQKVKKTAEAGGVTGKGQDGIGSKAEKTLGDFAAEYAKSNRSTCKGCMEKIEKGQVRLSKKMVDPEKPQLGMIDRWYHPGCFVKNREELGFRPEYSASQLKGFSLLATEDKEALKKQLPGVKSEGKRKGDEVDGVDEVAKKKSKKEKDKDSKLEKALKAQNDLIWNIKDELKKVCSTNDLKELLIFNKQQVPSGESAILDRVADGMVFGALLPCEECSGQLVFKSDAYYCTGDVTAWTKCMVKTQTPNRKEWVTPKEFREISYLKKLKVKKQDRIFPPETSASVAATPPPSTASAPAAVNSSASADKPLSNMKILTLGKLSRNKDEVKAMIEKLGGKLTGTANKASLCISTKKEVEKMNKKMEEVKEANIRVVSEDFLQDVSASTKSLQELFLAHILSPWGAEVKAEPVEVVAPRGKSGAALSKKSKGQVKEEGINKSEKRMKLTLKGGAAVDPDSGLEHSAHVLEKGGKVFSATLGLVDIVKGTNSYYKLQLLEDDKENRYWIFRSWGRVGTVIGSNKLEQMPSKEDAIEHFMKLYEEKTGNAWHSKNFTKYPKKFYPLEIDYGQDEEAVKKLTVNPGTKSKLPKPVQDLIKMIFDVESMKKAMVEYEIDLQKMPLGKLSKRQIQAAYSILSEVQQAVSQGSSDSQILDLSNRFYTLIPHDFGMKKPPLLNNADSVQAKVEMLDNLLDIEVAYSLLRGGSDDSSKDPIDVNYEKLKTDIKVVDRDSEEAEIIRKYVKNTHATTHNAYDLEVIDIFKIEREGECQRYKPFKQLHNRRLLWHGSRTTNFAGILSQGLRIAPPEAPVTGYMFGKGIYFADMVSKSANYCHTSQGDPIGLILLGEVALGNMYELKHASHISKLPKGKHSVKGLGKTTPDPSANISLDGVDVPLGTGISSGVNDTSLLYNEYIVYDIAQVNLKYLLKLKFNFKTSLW
smiles,measurement,setting,value
"CNC(=O)c1ccc(N2CCN(Cc3ccc4nc(C)c(=O)[nH]c4c3F)CC2)c(F)n1 [AZD9574, reference compound]",inhibitory effects on tumor growth (in words),[1]; 3 mg/kg,significant inhibitory effects on tumor growth
"CNC(=O)c1ccc(N2CCN(CC3Cc4[nH]c(=O)c(C(F)F)cc4CO3)CC2)c(F)n1 (stereo not shown) [Example 43, 5-(4-((3-(Difluoromethyl)-2-oxo-1,5,7,8-tetrahydro-2H-pyrano[4,3-b]pyridin-7-yl)methyl)piperazin-1-yl)-6-fluoro-N-methylpicolinamide]",pIC50,[2],6.30 to 7.30
same,concentration at 0.25 h,[3]; [8],16 ng/g
same,concentration at 2 h,[3]; [8],3 ng/g
same,concentration at 0.25 h,"[3]; plasma, read-out: Plasma",8030 ng/mL
same,concentration at 2 h,"[3]; plasma, read-out: Plasma",7690 ng/mL
same,pIC50,[4],< 5.00
same,inhibitory effects on PARP6 (in words),[4]; conclusion of Table 21,"Conclusion: Compounds 2, 43, etc., of the present disclosure exhibited relatively weak inhibitory effects on PARP6, demonstrating high selectivity."
"CCc1nc2c([nH]c1=O)C[C@@H](CN1CC=C(c3ccc(C(=O)NC)nc3F)CC1)CC2 [Example 53, (S)-1'-((2-Ethyl-3-oxo-3,4,5,6,7,8-hexahydroquinoxalin-6-yl)methyl)-2-fluoro-N-methyl-1',2', 3',6'-tetrahydro-[3,4'-bipyridine]-6-carboxamide]",pIC50,[2],≥ 7.30
same,pIC50,[5],8.82
same,pIC50,[6],< 6.00
same,CL,[7],0.67 mL/min/kg
same,Vdss,[7],0.42 L/kg
same,AUC(0-t),"[7]; male, mouse, plasma",22300 ng·h/mL
same,Cmax,"[7]; male, mouse, plasma",3650 ng/mL
same,half-life,"[7]; male, mouse, plasma",7.1 h
same,anti-tumor effect compared with the AZD9574 (3 mg/kg) group (in words),[1]; 1 mg/kg,superior
same,inhibitory effects on tumor growth (in words),[1]; 1 mg/kg,significant inhibitory effects on tumor growth
"CCc1cc2ncc(CN3CCN(c4ccc(C(=O)NC)nc4)CC3)cc2[nH]c1=O [AZD5305, reference compound]",pIC50,[4],5.09

# Source: patent publication EP4768487A1, “FUSED LACTAM RING COMPOUND AND USE THEREOF” (Chengdu Zenitar Biomedical Technology Co., Ltd., priority 2023, dated 2025)
